# Measured values published in paper PMC7004355 (PLoS ONE, 2020).
# Molecular target: T1, OTC (E. coli ornithine transcarbamoylase, argI) (Escherichia coli, UniProt P04391)
# T1 construct: full length, uncleaved 6xHis tag, pCA24N ASKA clone, expressed in BL21(DE3) Tuner; homotrimer of 333-residue subunits
# T1 sequence (P04391 2-334): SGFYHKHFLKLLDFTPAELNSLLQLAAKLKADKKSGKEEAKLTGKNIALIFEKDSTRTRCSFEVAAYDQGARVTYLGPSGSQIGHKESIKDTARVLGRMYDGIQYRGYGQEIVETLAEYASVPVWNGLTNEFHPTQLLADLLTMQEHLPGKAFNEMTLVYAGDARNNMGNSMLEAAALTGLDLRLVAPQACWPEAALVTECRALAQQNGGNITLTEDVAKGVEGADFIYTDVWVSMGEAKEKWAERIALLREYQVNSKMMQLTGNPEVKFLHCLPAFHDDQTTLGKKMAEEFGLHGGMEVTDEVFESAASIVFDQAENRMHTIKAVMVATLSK
# Assay: thermal shift (Sypro Orange)
# Format: binding
# Conditions: absolute Tm, not dTm; 1 mM carbamoyl phosphate, 10 μM enzyme, 50 mM HEPES pH 8, 200 mM NaCl, 2 mM DTT
# Description: thermal shift (Sypro Orange) on OTC (E. coli ornithine transcarbamoylase, argI)
compound,measurement,value
"NC(=O)OP(=O)(O)O [CP, carbamoyl phosphate]",enzyme +cp,70 ± 0.5 °C
